Results on three substances are retold here after US20090069230A1, “GDNF-DERIVED PEPTIDES” (The Research Foundation of State University of New York, priority 2007, published 2009).

This experiment has as its system C6 glial cells. Kind of experiment: Ca2+ mobilization in GDNF peptide-treated C6 glial cells (Calcium Crimson-AM fluorescence). It is filed as cell-based. The settings on record: for change in Ca2+ mobilization relative to control samples: external Ca2+ containing buffer, FIG. 6; for change in Ca2+ mobilization relative to control samples / change in fluorescence relative to the control sample: peptide 1 7.0 μM, peptide 2 2.3 μM, peptide 3 0.8 μM; for change in fluorescence relative to the control sample: external Ca2+ free buffer, FIG. 5. As to the method: We evaluated the ability of the GDNF peptides to activate G-protein associated transmembrane receptors. C6 glial cells were incubated with GDNF peptides, either singly or in combination, and calcium mobilization was monitored as a index of receptor activation.
GDNF peptides were custom synthesized via automated solid-phase methods using FMOC chemistry, HPLC purified, and characterized at the Small Peptide Synthesis Resource of the KECK Facility at Yale University. C6 glial cells were cultured to 80% confluency in the presence of GDNF peptides and loaded with the Ca^2+-sensitive fluorescent indicator dye, Calcium Crimson-AM (5 μM dye in Me2SO) at 37° C. for 20 min. Approximately 10^3 cells were then transferred into a quartz cuvette and the change in intracellular fluorescence was monitored in real time using an ISI Fluorescence spectrophotometer with an excitation wavelength of 590 nm. Emissions were monitored at 615 nm. An increase in fluorescence units was indicative of a rise in internal calcium.
C6 glial cells were cultured as above and incubated in increasing concentrations (0.8 μM; 1.6 μM; 2.4 μM; 3.2 μM and 4.0 μM) of GDNF-derived peptide (FPLPA (SEQ ID NO:4)). Fluorescence was measured according to the method in Example 3.
C6 glial cells were cultured as above and incubated in increasing concentrations (7.0 μM; 14 μM; 21 μM; 28 μM and 35 μM) of GDNF-derived peptide (PPEAPAEDRSL (SEQ ID NO:5)). Fluorescence was measured according to the method in Example 3.
C6 glial cells were cultured as above except that no Ca^2+ was present in the media. Cells were incubated with GDNF-derived peptides according to the experimental design indicated in Table 2 and the combinations in FIG. 5. Fluorescence was measured according to the method in Example 3.
C6 glial cells were cultured according to the method in Example 3. Cells were incubated with GDNF-derived peptides according to the experimental design indicated in Table 2 and the combinations in FIG. 6. Fluorescence was measured according to the method in Example 3.
(In general: Calcium flux is commonly read through the fluorescence of an indicator in the cells.)

In the case of “PPEAPAEDRSL (listed as Homo sapiens) [GDNF-derived peptide, 11-mer]”, the “change in Ca2+ mobilization relative to control samples” value is “increase in Ca^2+ mobilization” and the “change in fluorescence relative to the control sample” value was “moderate increases”. In addition, where the note is “PPEAPAEDRSL at 7.0, 14, 21, 28 and 35 μM, FIG. 4”, the “Ca2+ mobilization (fluorescence), dose response” value is reported as “dose-dependent increase in Ca^2+ mobilization”.
With “ERNRQAAAANPENSRGK (listed as Homo sapiens) [GDNF-derived peptide, 17-mer]”, the “change in Ca2+ mobilization relative to control samples” value is recorded as “decrease in Ca^2+ mobilization” and the “change in fluorescence relative to the control sample” value is “moderate increases”.
As to “FPLPA (listed as Homo sapiens) [GDNF-derived peptide, 5-mer]”, the “change in Ca2+ mobilization relative to control samples” value was “decrease in Ca^2+ mobilization” and the “change in fluorescence relative to the control sample” value is “moderate increases”. Further, the “Ca2+ mobilization (fluorescence), dose response” value (FPLPA at 0.8, 1.6, 2.4, 3.2 and 4.0 μM, FIG. 3) is “dose-dependent increase in Ca^2+ mobilization at peptide concentrations up to 3.2 μM, followed by a decrease at 4.0 μM”.
